Data published in PMC12275099, “VX-445 (elexacaftor) inhibits chloride secretion across human bronchial epithelial cells by directly blocking KCa3.1 channels” (PNAS Nexus, 2025).
Read-outs that look alike come from different tables or passages of the source.

Columns and labels:
[1] = target: T1, endogenous KCa3.1 in WT CFTR-expressing HBEs (Homo sapiens, UniProt O15554); assay: Whole-cell patch-clamp on undifferentiated HBEs; format: cell-based; details: VX-445 10 µM; 500 nM free Ca2+ in pipette; n = 3; read-out: inhibition of whole-cell outward potassium current
T1 construct: endogenous in cells; host or cells: undifferentiated primary human bronchial epithelial cells (WT CFTR donors)
Description: (§1) Our Isc results are consistent with VX-445 inhibiting KCa3.1 in HBEs. To directly assess this possibility, we initially carried out whole-cell patch-clamp studies on undifferentiated HBEs. […] Upon application of 10 µM VX-445, a majority of this current was inhibited, averaging 87 ± 4% (n = 3, P < 0.005; Fig. 3B). A summary of the current–voltage (I–V) relationship—normalized to cell capacitance—is shown in Fig. 3C, which also includes the whole-cell I–V in the presence of Tram-34. […] To ensure isolation of KCa3.1 currents and to more fully characterize this VX-445-dependent inhibition of KCa3.1, we utilized HEK cells heterologously expressing KCa3.1 (HEK-KCa3.1). Initially, we confirmed our results from HBEs, using whole-cell recordings, as above. […] In seven experiments, this inhibition averaged 58 ± 7% (P < 0.005). […] It is well recognized that drugs are carried to their targets in the blood bound to albumin, which ranges from 3.4 to 5.4%. Thus, we determined whether VX-445 (10 µM) would inhibit KCa3.1 expressed in HEK cells in the presence of 3.4% albumin. In four experiments, VX-445 inhibited an average of 51 ± 17% of the whole-cell KCa3.1 current, which is not different from that observed in the absence of albumin. To confirm the direct effect of VX-445 on KCa3.1, we utilized the excised, inside-out patch-clamp technique. The patch was then exposed to DCEBIO (100 µM) to further activate the channels ([34–37])—analogous to our Isc studies in HBEs. […] In three experiments, VX-445 inhibited an average of 63 ± 6% of the KCa3.1 current. Based on these experiments, we determined the apparent inhibitory constant, Ki for VX-445. For these experiments, patches were excised into saturating Ca^2+ (3 µM) to ensure maximal KCa3.1 activation. These studies were carried out in the absence of DCEBIO to eliminate the possibility that the inhibition observed was due to competition for the DCEBIO-binding site.
Primary human bronchial epithelial cells (HBEs) were collected from unused or discarded samples from the Center for Organ Recovery and Education via the University of Pittsburgh Pulmonary, Allergy, Critical Care, and Sleep Medicine Lung Biobank and Repository. All experimental procedures involving the use of HBEs were approved by the institutional review board (IRB STUDY19090084) and the Committee for Oversight of Research and Clinical Training Involving Decedents (CORID number 451) at the University of Pittsburgh. At all times, authors were blind to the identity of HBE donors. HBEs were cultured using the Vertex method ([72]). Studies were carried out on WT CFTR HBEs from 11 ([13]) donors and homozygous F508del/F508del CFTR HBEs from five ([5]) separate donors. […]

[2] = set-up: method as in PMID 36371965; details: patients with CF, converted; cited from earlier work
KCa3.1 = target: T2, KCa3.1 (Homo sapiens, UniProt O15554); assay: Whole-cell patch-clamp on HEK cells heterologously expressing KCa3.1; format: cell-based; details: HEK293, VX-445 10 µM
T2 construct: expressed in transfected cells
Description: as §1
HEK cells stably expressing KCa3.1 (IK1, SK4), KCa2.3 (SK3), and KCa2.2 (SK2) were generated and cultured as previously described by us ([37], [66–71]).
HEK cells expressing the channel of interest were plated onto poly-L-lysine-coated glass coverslips 1–2 days prior to patch-clamp analysis. Electrophysiological recordings in the excised, inside-out, and whole-cell patch-clamp configurations were performed as recently described ([14]). For excised patch-clamp recordings, the pipette solution contained (in mM): 140 K-gluconate, 5 KCl, 1 CaCl2, 1 MgCl2, and 10 HEPES. The pH was adjusted to 7.2 with KOH. The bath solution contained (in mM): 145 K-gluconate, 5 KCl, 1.3 MgCl2, 10 HEPES, and 1 EGTA. Sufficient CaCl2 was added to obtain the desired free Ca^2+ concentration at a pH of 7.2 (adjusted with KOH). When recording KCa3.1 channels, ATP (300 µM) was added to the bath to diminish channel rundown ([73]). All recordings were carried out at a voltage of −100 mV, referenced to the extracellular compartment, as is standard. The apparent Ki and Hill coefficient for each CFTR corrector on KCa3.1, KCa2.3, and KCa2.2 were determined during a continuous recording by step-wise addition of increasing concentrations of compound and fitting the resultant relative remaining current to a Hill equation (Prism v. 10.1.0). The zero current level was determined by the addition of a 0 Ca^2+ solution (zero-added Ca^2+ plus 1 mM EGTA) at the end of the experiment. In the case of KCa3.1, TRAM-34, a known inhibitor of KCa3.1 ([45]), was used to confirm expression of the channel. For whole-cell experiments, pipettes contained (in mM): 145 K-gluconate, 10 EGTA, 7.5 CaCl2, 2 MgCl2, 3 mM NaATP, and 10 HEPES. The bath solution contained (in mM): 140 K-gluconate, 5 KCl, 1.0 MgCl2, 10 HEPES, and 2 CaCl2. Current–voltage relationships were determined by stepping from a holding potential of −80 mV to +80 mV in 20 mV increments for 400 ms. […]

SMILES: Cc1nn(C)cc1S(=O)(=O)NC(=O)c1ccc(-n2ccc(OCC(C)(C)C(F)(F)F)n2)nc1N1C[C@@H](C)CC1(C)C [VX-445, elexacaftor]
- inhibition at 10 µM [1]: 87 ± 4%
- mean concentration in nasal brushing cell lysates, upper end [2]: ~9 µM
- inhibition at 10 µM (KCa3.1; four experiments, read-out: inhibition of whole-cell KCa3.1 current in the presence of 3.4% albumin): 51 ± 17%
- inhibition at 10 µM (KCa3.1; seven experiments, read-out: inhibition of whole-cell KCa3.1 current): 58 ± 7%
